Measurements: US5356926A, “3-alkyloxy-, aryloxy-, or arylalkyloxy-benzo [β]thiophene-2-carboxamides as inhibitors of cell adhesion” (Warner-Lambert Company, priority 1993, dated 1994)

How the values were obtained:
[1] = target: T1, 5-Lipoxygenase (Rattus norvegicus, UniProt P12527); assay: 5-lipoxygenase inhibition assay (20,000 xg supernatant of RBL cells); type: biochemical; set-up: activity contained in the 20,000 xg supernatant from cultured rat basophilic leukemia (RBL) cells; endogenous in cells; host or cells: RBL (rat basophilic leukemia) cells, 20,000 xg supernatant; details: Table 4, read-out: 5-LO % Inhibition at 30 μM
T1 sequence (P12527 1-673): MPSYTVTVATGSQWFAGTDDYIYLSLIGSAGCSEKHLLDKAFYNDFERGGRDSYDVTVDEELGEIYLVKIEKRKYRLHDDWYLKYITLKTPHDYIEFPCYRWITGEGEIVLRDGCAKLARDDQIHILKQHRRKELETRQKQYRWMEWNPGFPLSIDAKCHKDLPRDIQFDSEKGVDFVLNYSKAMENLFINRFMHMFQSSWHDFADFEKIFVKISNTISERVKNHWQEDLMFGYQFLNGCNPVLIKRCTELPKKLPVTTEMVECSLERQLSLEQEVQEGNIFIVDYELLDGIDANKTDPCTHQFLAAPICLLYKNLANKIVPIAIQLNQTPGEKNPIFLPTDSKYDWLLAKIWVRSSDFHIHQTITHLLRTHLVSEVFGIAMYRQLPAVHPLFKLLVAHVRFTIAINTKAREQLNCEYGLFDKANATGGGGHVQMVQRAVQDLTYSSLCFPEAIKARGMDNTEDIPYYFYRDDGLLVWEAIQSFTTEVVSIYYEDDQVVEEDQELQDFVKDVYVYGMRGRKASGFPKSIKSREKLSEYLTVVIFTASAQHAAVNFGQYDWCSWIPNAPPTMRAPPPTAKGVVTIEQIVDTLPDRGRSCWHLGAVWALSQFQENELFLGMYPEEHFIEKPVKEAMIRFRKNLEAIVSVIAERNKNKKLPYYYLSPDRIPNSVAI
Experimental: PROTOCOL FOR 5-LIPOXYGENASE INHIBITION ASSAY
Incubations contained 5% (v/v) RBL 20,000 xg supernatant in assay buffer (10 mM BES, 10 mM PIPES, 1 mM EDTA, 0.75 mM CaC12, 1 mMATP, 100 mMNaCl, pH 6.8). DMSO vehicle (2% v/v) with and without inhibitors is preincubated with the enzyme for 20 minutes at 37° C. before initiating the 5-lipoxygenase catalyzed reaction by adding […] [^14 C]arachidonic acid (55.8 mCi/mmol, New England Nuclear, Boston, Mass.) dissolved in 5 μL 0,028% (v/v) aqueous NH4 OH. After 20 minutes of additional incubation at 37° C., reactions are terminated by the addition of three volumes of methanol containing 100 μg triphenylphosphine. Samples are then analyzed by HPLC with radiometric detection for 5-1ipoxygenase reaction products.
All treatments are evaluated in duplicate and percent inhibition is computed by comparing the products formed in treatment incubations to the mean product formation in the vehicle control group.

[2] = target: T1, 5-Lipoxygenase; assay: ARBL: 5-lipoxygenase (LTB4) in RBL-1 cells; type: cell-based; set-up: endogenous in cells; host or cells: RBL-1 (rat basophilic leukemia); details: Table 4; ARBL/ARBC IC50 (μM) or % inhibition at 10 μM; RBL-1 cells, A23187
Experimental: The testing methods used are described as follows:
The rat basophilic leukemia cell line (RBL-1) was obtained from the American Type Culture Collection (Rockville, Md.).
Radioimmunoassay (RIA) kits of LTB4 and PGF2α were obtained from Arnersham (Arlington Heights, IL) and Seragen (Boston, Mass.), respectively.
All tissue culture media were obtained from GIBCO (Grand Island, N.Y.).
RBL-1 cells are grown in suspension culture in Eagle's minimum essential medium supplemented with 12% fetal bovine serum at 37° C. in an incubator supplied with air-5% carbon dioxide. Cells are harvested by centrifugation. They are washed with cold phosphate-buffered saline, pH 7.4 (PBS; NaCl, 7.1 g; Na2 HPO4, 1.15 g; KH2 PO4, 0.2 g; and KCl, 0.2 g/L). Cells are finally suspended in PBS containing 1.0 mM calcium at a density of 2×10^6 cells/mL. Cells are incubated with and without test agent (in DMSO) (1% DMSO is without effect on arachidonic acid metabolism) for 10 minutes at room temperature. Calcium ionophore A23187 (5 μM) is added and cells are incubated for 7 minutes at 37° C. The reaction is stopped by chilling the tubes on ice for 10 minutes. Cells are separated by centrifugation and the supernatant is stored at -20° C. Aliquots (100 μL) are analyzed for LTB4 and PGF2α using radioimmunoassay kits as provided by the supplier.

[3] = system: human neutrophil adhesion to TNFα, IL-1α, and LPS stimulated human umbilical vein endothelial cells; assay: Modified method: inhibition of human neutrophil adhesion to TNF-stimulated HUVEC (calcein fluorescence); type: cell-based; set-up: inhibition: dose or concentration left out as unconfirmed; details: for inhibition at 33.3 µM: Table 2, tested at a concentration of 33.3 μM (footnote a); for inhibition: Table 3
Excerpt: MODIFIED METHOD FOR DETERMINING THE INHIBITION OF HUMAN NEUTROPHIL ADHESION TO TNFα, IL-1α, AND LPS STIMULATED HUMAN UMBILICAL VEIN ENDOTHELIAL CELLS BY 3-ALKOXY-BENZO[b]THIOPHENE-2-CARBOXAMIDES
The previous assay using ^51 Cr labeled human neutrophils has been modified. The neutrophils are now labeled with the fluorescent dye calcein. The current method allows for quantification of neutrophil adherence by fluorescence spectroscopy.
Second passage HUVEC (Clonetics Corporation, San Diego, Calif., CC-2617) were seeded into Corning (Corning glass works, Corning, N.Y.) 96-well cell culture plates at approximately 5×10^3 cells/well and grown to confluency in supplemented endothelial basal medium (EBM, MCDB-131, Clonetics, 10 ng/mL EGF, 1 μg/mL hydrocortisone, 0.4% bovine brain extract, 5% Fetal Bovine Serum). One day prior to running the assay, typically 3 days postseeding, the cultures were refed with 0.2 mL/well supplemented EBM (S-EBM).
Preparation of Test Compounds
Test compounds were prepared as 10 mL stock solutions at a concentration of 1.0 mM. The compounds were initially solubilized in 0.1 mL DMSO followed by the addition of 9.9 mL S-EBM. The drug preparations were then diluted in one step to a concentration of 66.6 μM. Solubilizations and dilutions were performed in polystyrene containers.
Isolation of Human Neutrophils
Human neutrophils were isolated from anticoagulant-treated venous blood obtained from healthy volunteers according to the method of Ferrante and Thong. The cell preparations consisted of greater than 98% neutrophils.
Recombinant human tumor necrosis factor-α (TNF, Genzyme, Boston, Mass., code TNF-H) was prepared at 400 U/mL in S-EBM. Stock TNF was prepared to 20,000 U/mL in Delbecco's phosphate-buffered saline (PBS, Gibco, Grand Island N.Y.) plus 0.1% BSA and stored at -70° C. […] This was accomplished by adding 0.1 mL of 400 U/mL TNF and 0.1 mL 66.6 μM test compound. These additions were done slowly as to not disrupt the HUVEC monolayer. Each compound was tested in six wells. Unstimulated (vehicle control) and TNF-stimulated without test compound treatments were also run in each plate.
One hour prior to adding the neutrophils to the HI/VEC, neutrophils (5×10^6 /mL) were labeled for 30 minutes at 37° C. with 5 μM calcine-AM (Molecular Probes, Eugene, OR) in Hanks' balanced salt solution plus 0.45% BSA. Stock calcein was prepared to 5 mM in anhydrous DMSO and stored desiccated at -20° C. At the end of the incubation the cells were washed two times in cold HBSS and resuspended to a final concentration of 1×10^6 cells/mL in unsupplemented EBM.
Addition of Neutrophils to HUVEC
At the end of the 4-hour stimulation and immediately prior to the addition of the neutrophils to the HUVEC monolayer, the plates were washed with 0.2 mL warm unsupplemented EBM to remove TNF and drug. Neutrophils (1×10^5 cells) were slowly added to each of the treated wells and incubated for 30 minutes at 37° C. At the end of the incubation the plates were washed two times with 0.2 mL warm unsupplemented EBM followed by a final addition of 0.1 mL for plate scanning.
Determination of Relative Fluorescence
The relative fluorescence was determined using a Millipore Cytofluor 2300 system (excitation=480, emission=530, sensitivity=4).
Results were expressed as means of percent inhibition of TNF-stimulated adherence, using the following equation. [formula] […] Linear regression analysis of the means of the inhibition values were used to determine the IC50.
The compounds of Examples 36-44 in Table 2 and 45-53 in Table 3 were tested according to the modified method.

With `COc1ccc2sc(C(N)=O)c(OC(C)C)c2c1` [Example 1, 5-methoxy-3-(1-methylethoxy)benzo[b]thiophene-2-carboxamide] the inhibition at 30 µM [1] was 13% and the IC50 [2] was 36 µM.
With `CCOC(=O)c1ccc(NC(=O)c2sc3ccc(OC)cc3c2OC(C)C)nc1` [Example 36, Ethyl 6-[[[5-methoxy-3-(1-methylethoxy)benzo[b]thien-2-yl]carbonyl]amino]-3-pyridinecarboxylate] the inhibition at 33.3 µM [3] was 26%.
In the case of `COc1ccc2sc(C(=O)Nc3ccc(C(=O)O)cn3)c(OC(C)C)c2c1` [Example 37], the inhibition at 33.3 µM [3] is reported as 8%.
Compound `CCOC(=O)Cc1csc(NC(=O)c2sc3ccc(OC)cc3c2OC(C)C)n1` [Example 38, Ethyl 2-[[[5-methoxy-3-(1-methylethoxy)benzo[b]thien-2-yl]carbonyl]amino]-4-thiazoleacetate] has an inhibition at 33.3 µM [3] of 72%.
For `COc1ccc2sc(C(=O)Nc3nc(CC(=O)O)cs3)c(OC(C)C)c2c1` [Example 39, 2-[[[5-Methoxy-3-(1-methylethoxy)benzo[b]thien-2-yl]carbonyl]amino]-4-thiazoleacetic acid], the inhibition at 33.3 µM [3] was 26%.
`COc1ccc2sc(C(=O)Nc3ccc(C(=O)O)cc3OC)c(OC(C)C)c2c1` [Example 40, 3-Methoxy-4-[[[5-methoxy-3-(1-methylethoxy)benzo [b]thien-2-yl]carbonyl]amino]benzoic acid] showed an inhibition at 33.3 µM [3] of 34%.
With `COc1ccc2sc(C(=O)Nc3ccc(C(=O)O)c(O)c3)c(OC(C)C)c2c1` [Example 42, 2-Hydroxy-4-[[[5-methoxy-3-(1-methylethoxy)benzo[b]thien-2-yl]carbonyl]arnino]benzoic acid] the IC50 ([3]; Table 2, footnote c not defined) was 34 µM.
Compound `CNC(=O)c1c(OC(C)C)c2cc(OC)ccc2[s+]1[O-]` (centres unmarked) [Example 46, 5-Methoxy-N-methyl-3-(1-methylethoxy)benzo[b]thiophene-2-carboxamide-1-oxide] has an inhibition [3] of 43%.
Work on `COc1ccc2c(c1)c(OC(C)C)c(C(=O)NCc1ccccc1)[s+]2[O-]` (centres unmarked) [Example 47, 5-Methoxy-3-(1-methylethoxy)-N-(phenylmethyl)benzo[b]thiophene-2-carboxamide-1-oxide] yielded an inhibition [3] of 15%.
For `CC(C)Oc1c(C(N)=O)[s+]([O-])c2ccc(O)cc12` (centres unmarked) [Example 49, 5-Hydroxy-3-(1-methylethoxy)benzo[b]thiophene-2-carboxaraide-1-oxide], the inhibition [3] was 79%.
In the case of `Cc1ccc2c(c1)c(OC(C)C)c(C(N)=O)[s+]2[O-]` (centres unmarked) [Example 50, 5-Methyl-3-(1-methylethoxy)benzo[b]thiophene-2-carboxaraide-1-oxide], the inhibition [3] is reported as 69%.
`COc1ccc2c(c1)c(Oc1ccccc1)c(C(N)=O)[s+]2[O-]` (centres unmarked) [Example 51, 5-Methoxy-3-phenoxybenzo[b]thiophene-2-carboxamide-1-oxide] was tested, and the inhibition [3] was 15%.
With `COc1ccc2c(c1)c(OC)c(C(N)=O)[s+]2[O-]` (centres unmarked) [Example 53, 3,5-Dimethoxybenzo[b]thiophene-2-carboxamide-1-oxide] the inhibition [3] was 40%.
